Laboratory results: patent US5110831A, “Vinylogous hydroxamic acids and derivatives thereof as 5-lipoxygenase inhibitors” (Du Pont Merck Pharmaceutical Company, priority 1990, dated 1992)

Target: T1, RBL-1 5-Lipoxygenase (Rattus norvegicus, UniProt P12527)
T1 construct: supernatant from homogenized RBL-1 cells; endogenous in cells; host or cells: RBL-1 cells (10,000×g supernatant of homogenate)
T1 sequence (P12527 1-673): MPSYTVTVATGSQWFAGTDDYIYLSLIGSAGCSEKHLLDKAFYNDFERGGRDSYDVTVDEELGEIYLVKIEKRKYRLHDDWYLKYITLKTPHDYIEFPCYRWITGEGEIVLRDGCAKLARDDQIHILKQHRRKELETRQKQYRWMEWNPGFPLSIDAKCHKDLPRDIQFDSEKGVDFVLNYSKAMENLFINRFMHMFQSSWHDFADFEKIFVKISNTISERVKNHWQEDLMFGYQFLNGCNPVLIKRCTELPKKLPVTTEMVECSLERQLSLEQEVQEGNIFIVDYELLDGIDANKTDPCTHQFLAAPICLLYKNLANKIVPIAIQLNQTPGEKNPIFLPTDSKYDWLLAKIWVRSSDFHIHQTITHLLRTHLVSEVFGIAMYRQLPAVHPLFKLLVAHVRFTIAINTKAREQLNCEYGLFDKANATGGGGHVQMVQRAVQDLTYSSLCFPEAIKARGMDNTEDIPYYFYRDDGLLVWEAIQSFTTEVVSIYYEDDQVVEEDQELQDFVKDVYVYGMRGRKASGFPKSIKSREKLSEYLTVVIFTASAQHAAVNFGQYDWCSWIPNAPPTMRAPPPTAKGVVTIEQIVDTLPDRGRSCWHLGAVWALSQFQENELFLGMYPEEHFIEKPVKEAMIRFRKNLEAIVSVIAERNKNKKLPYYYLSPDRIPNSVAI
Experiment: RBL-1 5-lipoxygenase assay (10,000×g supernatant from homogenized RBL-1 cells, [14C] arachidonic acid)
Assay type: biochemical
Settings: pH 7.0, 37° C., 5 min preincubation, 0.042 mM arachidonic acid; linear regression on three concentrations
Procedure: The potencies of the compounds as 5-lipoxygenase inhibitors were determined using a RBL-1 5-lipoxygenase assay. The procedure of Jakschik et al. was used (Jakschik, B. A.; Lee, L. H.; Shuffer, G.; Parker, C. W., Prostaglandins, 1978, 16, 733; Jakschik, B. A.; Sun, F. F.; Lee, L. H.; Steinhoff, M. M. Biochem. Biophys. Res. Commun., 1980, 95, 100; […]., Biochem. Biophys. Res. Commun., 1981, 102, 624). The enzyme was prepared as a 10,000×gsupernatant from homogenized RBL-1 cells. Because of variability in the enzyme content from culture to culture, an amount of supernatant was chosen to give a net production of 3300-3800 dpm of 5-HETE under the assay conditions (total cell protein 9-20 μg/assay). All reactions were run in duplicate. In a total volume of 100 μL, the appropriate amount of enzyme was incubated with test compound (prepared in 5% DMSO, 95% 0.2 M Tris, pH 8.5) in a phosphate buffer (45 mM sodium phosphate, 0.83 mM EDTA, 0.083% gelatin, 0.1 mM glutathione, 0.83 mM calcium chloride, 0.012 mM indomethacin) at pH 7.0 and 37° C. for 5 min. The reaction was initiated by the addition of 20 μL of a solution of arachidonic acid in phosphate buffer. […] Remaining products were eluted with methanol/water/acetic acid (70:30:1). Activity was measured as the total radioactivity in the 5-LO products, and inhibition was calculated at (1-D/C)×100%, where D is the activity in the presence of the test compound and C is the control activity.

| SMILES | IC50 [nM] |
| --- | --- |
| O=C(C=CN(O)Cc1ccc(OCc2ccccc2)cc1)C1CC1 [Example 1e] | 3100 |
| O=C(C=CN(O)C1CCCCC1)c1ccc2ccccc2c1 [Example 1c] | 2500 |
| O=C(C=CN(O)Cc1ccc2ccccc2c1)C1CC1 [Example 1j] | 1500 |
| CN(O)C=CC(=O)c1cc2ccccc2s1 [Example 1i] | 440 |
| CN(O)C=CC(=O)c1ccc(OCc2ccccc2)cc1 [Example 1a, 1-(4-(Benzyloxy)phenyl)-3-(N-hydoxy-N-methyl)aminoprop-2-en-1-one] | 1600 |
| CC(c1ccc2ccccc2c1)N(O)C=CC(=O)c1ccc2ccccc2c1 (stereo not drawn) [Example 1b] | 2200 |

Further lines, results first:

| IC50 [nM] | SMILES |
| --- | --- |
| 250 | O=C(C=CN(O)Cc1ccccc1)c1ccc(Cl)cc1 [Example 2e] |
| 1100 | O=C(C=CN(O)c1ccccc1)c1ccc2ccccc2c1 [Example 2b] |
| 7700 | CC(=O)C=CN(O)Cc1ccc(OCc2ccccc2)cc1 [Example 3a] |
| 2300 | O=C(C=CN(O)Cc1ccccc1)c1ccc2ccccc2c1 [Example 2a, 1-(2-naphthyl)-3-(N-hydoxy-N-benzyl) aminoprop-2-en-1-one] |

System: not given
Experiment: not given
Settings: times the activity of histamine; cited from earlier work

| SMILES | spasmogen activity relative to histamine [times] |
| --- | --- |
| CCCCC/C=C\C\C=C/C=C/C=C/[C@@H](SC[C@H](N)C(=O)NCC(=O)O)[C@@H](O)CCCC(=O)O [LTD4] | 1000 |
| CCCCC/C=C\C\C=C/C=C/C=C/[C@@H](SC[C@H](NC(=O)CC[C@H](N)C(=O)O)C(=O)NCC(=O)O)[C@@H](O)CCCC(=O)O [LTC4] | 1000 |
| CCCCC/C=C\C\C=C/C=C/C=C/[C@@H](SC[C@H](N)C(=O)O)[C@@H](O)CCCC(=O)O [LTE4] | 1000 |

System: not given
Experiment: not given
Settings: cited from earlier work

| SMILES | effect of inhaled LTC4 |
| --- | --- |
| CCCCC/C=C\C\C=C/C=C/C=C/[C@@H](SC[C@H](NC(=O)CC[C@H](N)C(=O)O)C(=O)NCC(=O)O)[C@@H](O)CCCC(=O)O [LTC4] | causes the immediate development of symptoms resembling those of an asthmatic attack |

System: inflammatory cells such as polymorphonuclear leukocytes
Experiment: not given
Settings: cited from earlier work

| SMILES | chemotactic activity for inflammatory cells |
| --- | --- |
| CCCCC/C=C\C[C@@H](O)/C=C/C=C/C=C\[C@@H](O)CCCC(=O)O [LTB4] | potent chemotactic factors |
